Values of other authors in patent US7211580B2, “Compounds, compositions, and methods” (Cytokinetics, Incorporated, priority 2002, dated 2007).

System: A549 cells
Conditions: concentration that decreases rate of cell growth by fifty percent

**Q.** Which GI50 does the source give for O=c1[nH]cc(F)c(=O)[nH]1 [5-fluorouracil] here?
**A.** Its GI50 is 1 µM.

**Q.** With COc1cccc2c1C(=O)c1c(O)c3c(c(O)c1C2=O)C[C@@](O)(C(=O)CO)C[C@@H]3O[C@H]1C[C@H](N)[C@H](O)[C@H](C)O1 [doxorubicin] as the compound, how does the GI50 read?
**A.** The GI50 was 0.063 µM.

**Q.** For CC(=O)O[C@H]1C(=O)[C@@]2(C)[C@H]([C@H](OC(=O)c3ccccc3)[C@]3(O)C[C@H](OC(=O)[C@H](O)[C@@H](NC(=O)c4ccccc4)c4ccccc4)C(C)=C1C3(C)C)[C@]1(OC(C)=O)CO[C@@H]1C[C@@H]2O [paclitaxel], which GI50 is on record?
**A.** The GI50 was 0.004 µM.

**Q.** With NC(=O)NO [hydroxyurea] as the compound, how does the GI50 read?
**A.** The GI50 was 500 µM.
